In patent publication US8614333B2, “Acenaphtho heterocyclic compound and application thereof” (Dalian University of Technology, priority 2010, dated 2013):
Where “and” joins values, the source holds several entries; their conditions need not be identical. Equal entries are not always repeated.

Test system: Mcl-1
Assay: Western blotting, semiquantitative analysis of Mcl-1 protein bands
Format: cell-based
Details: 2 h; control = 1; tumor cells
Protocol: (§1) The interest protein was detected by the corresponding antibody. The expression of the interest protein in the cells was detected by horseradish peroxidase-labeled secondary antibodies in combination with ECL coloration method. […] The concentration of the protein bands in the Western images were carried out semiquantitative analysis and normalization treatment with KODAK Gel Logic 1500 imaging system software.

Row | Compound | concentration of the protein bands (semiquantitative, normalized), Mcl-1
1 | CCCCNC1=C2C(=NC1=O)c1cccc3c(Sc4ccc(Br)cc4)ccc2c13 [Compound 7, 3-(4-Bromo-phenylsulfanyl)-9-butylamino-acenaphtho[1,2-b]pyrrol-8-one] | 0.68
2 | CCCCNC1=C2C(=NC1=O)c1cccc3cccc2c13 [Compound 1, 9-n-Butylamino-8H-acenaphtho[1,2-b]pyrrol-8-one] | 0.79

Same assay, conditions: 6 h; control = 1; tumor cells

Row | Compound | concentration of the protein bands (semiquantitative, normalized), Mcl-1
3 | CCCCNC1=C2C(=NC1=O)c1cccc3c(Sc4ccc(Br)cc4)ccc2c13 [Compound 7, 3-(4-Bromo-phenylsulfanyl)-9-butylamino-acenaphtho[1,2-b]pyrrol-8-one] | 0.32
4 | CCCCNC1=C2C(=NC1=O)c1cccc3cccc2c13 [Compound 1, 9-n-Butylamino-8H-acenaphtho[1,2-b]pyrrol-8-one] | 0.35

Same assay, conditions: Western blotting, tumor cells

Row | Compound | inhibition against Mcl-1 (in words)
5 | CCCCNC1=C2C(=NC1=O)c1cccc3cccc2c13 [Compound 1, 9-n-Butylamino-8H-acenaphtho[1,2-b]pyrrol-8-one] | had the inhibition against these two proteins

Test system: BAX shift towards the chondriosome
Assay: Co-localization between Bax protein and chondriosome, Bax-YFP in MCF-7 cells
Format: cell-based
Details: Bax-YFP/Mito Tracker Red
Protocol: 5 μg of Bax-YFP plasmid was transfected into MCF-7 cells by using calcium phosphate coprecipitation method, 24 hours later, the cells were inoculated in a 6-well plate (0.2×10^6 cells/well), and 10 μM of the compound 1 to be detected was added thereinto. 6 hours later, the cells were washed with PBS and hatched away from light with 50 nM Mito Tracker Red CMXRos (chondriosome specific probes; red) for 10 minutes. Then the cells were washed with PBS for three times, and the fluorescent image was scanned with Radiance2000 laser confocal microscopy (Bio-Rad, USA). Meanwhile, dual channel scanning was carried out, one channel was used to scan the green fluorescence of Bax-YFP, and the other channel was used to scan the red fluorescence of the CMXRos probe for indicating the chondriosome. […] When the Bax protein was localized on the chondriosome, the green and red fluorescence was superimposed into orange, as shown in FIG. 7.
Other 24 compounds were detected by the same experimental method as described above. […] Wherein the concentration and time meant that the detected compound simulated the BH3-only protein and driven the BAX to shift towards the chondriosome at the concentration for the time period.

Row | Compound | Doses (concentration at which the compound drove the BAX to shift towards the chondriosome) [µM]
6 | CCCCNC1=C2C(=NC1=O)c1cccc3c(Sc4ccc(Br)cc4)ccc2c13 [Compound 7, 3-(4-Bromo-phenylsulfanyl)-9-butylamino-acenaphtho[1,2-b]pyrrol-8-one] | 0.5
7 | CCCCNC1=C2C(=NC1=O)c1cccc3cccc2c13 [Compound 1, 9-n-Butylamino-8H-acenaphtho[1,2-b]pyrrol-8-one] | 1.0

Same assay, conditions: at the concentration given

Row | Compound | Time (time period after which BAX shifted towards the chondriosome) [h]
8 | CCCCNC1=C2C(=NC1=O)c1cccc3c(Sc4ccc(Br)cc4)ccc2c13 [Compound 7, 3-(4-Bromo-phenylsulfanyl)-9-butylamino-acenaphtho[1,2-b]pyrrol-8-one] | 3
9 | CCCCNC1=C2C(=NC1=O)c1cccc3cccc2c13 [Compound 1, 9-n-Butylamino-8H-acenaphtho[1,2-b]pyrrol-8-one] | 3

Target: His-tagged Mcl-1 protein (Homo sapiens, UniProt Q07820)
Assay: ELISA assay, competitive binding to Mcl-1 protein (biotin-Bim/streptavidin plate)
Details: 20 nM His-tagged Mcl-1, method calculates average IC50, read-out: Mcl-1 binding constants
Protocol: (§2) The present inventors used fluorescence polarization assay to detect the bonding force between the protein and the compounds in a previous study (PCT/CN2010/075521). […] ELISA assay was used to detect the bonding force between the compounds and the protein in this application.
(§3) Biotinylated Bim peptide was diluted to 0.09 μg/mL in SuperBlock blocking buffer in PBS and incubated for 1.5 h in 96-well microtiter plates already coated with streptavidin to allow the formation of the complex between Biotin-Bim and streptavidin. All incubations were performed at room temperature unless otherwise noted. Each inhibitor was first dissolved in pure DMSO to obtain a 10 mM stock solution. For each tested inhibitor, different concentrations of the inhibitor were incubated with 20 nM His-tagged Mcl-1 protein in PBS for 1 h with a final DMSO concentration of 4%. The plates were washed three times with PBS containing 0.05% Tween-20. The inhibitor and protein mixture (100 μL) were transferred to the plate containing the biotin-Bim/streptavidin complex and incubated for 2 h. The plate was then washed as before and mouse anti-His antibody that conjugated with horseradish peroxidase was added into the wells and incubated for 1 h. The plate was then washed with PBS containing 0.05% Tween-20. Finally, TMB was added to each well; the enzymatic reaction was stopped after 30 min by addition of H2SO4 (100 μL, 2M). Absorbances were measured with a TECAN GENios (Swiss, TECAN) microplate reader using a wavelength of 450 nm. Three independent experiments were performed with each inhibitor to calculate average IC50 value and standard deviation (SD).
(§4) The BH3 analogous degrees of other 11 compounds were detected by using the experimental method as described above. The protein binding constant (binding constant in table 1) between them and Bcl-2 and Mcl-1 proteins were also on nM grade.

Chain of His-tagged Mcl-1 protein (Q07820 whole entry): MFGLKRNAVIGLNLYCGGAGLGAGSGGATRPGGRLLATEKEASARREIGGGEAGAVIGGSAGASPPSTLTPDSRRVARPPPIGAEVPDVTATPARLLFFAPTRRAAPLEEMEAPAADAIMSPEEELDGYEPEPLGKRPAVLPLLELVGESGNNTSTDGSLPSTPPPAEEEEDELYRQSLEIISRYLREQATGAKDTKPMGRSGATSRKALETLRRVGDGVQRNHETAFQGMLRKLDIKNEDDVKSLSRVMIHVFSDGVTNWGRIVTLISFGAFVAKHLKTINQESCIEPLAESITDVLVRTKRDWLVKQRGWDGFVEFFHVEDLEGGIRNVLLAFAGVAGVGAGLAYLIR

Row | Compound | IC50 [nM]
10 | CCCCNC1=C2C(=NC1=O)c1cccc3c(Sc4ccc(Br)cc4)ccc2c13 [Compound 7, 3-(4-Bromo-phenylsulfanyl)-9-butylamino-acenaphtho[1,2-b]pyrrol-8-one] | 14
11 | CCCCNC1=C2C(=NC1=O)c1cccc3cccc2c13 [Compound 1, 9-n-Butylamino-8H-acenaphtho[1,2-b]pyrrol-8-one] | 49

Test system: not given
Assay: not given
Details: not given

Row | Compound | melting point [°C]
12 | CCCCNC1=C2C(=NC1=O)c1cccc3c(Sc4ccc(Br)cc4)ccc2c13 [Compound 7, 3-(4-Bromo-phenylsulfanyl)-9-butylamino-acenaphtho[1,2-b]pyrrol-8-one] | 245 to 246

Target: T1, interaction between Bcl-2 and Bax (Homo sapiens, UniProt P10415)
T1 construct: expressed in transfected cells; host or cells: Hela cells
Assay: Intracellular FRET, Bcl-2-CFP/Bax-YFP in Hela cells
Format: cell-based
Details: not given
Protocol: 2 μg of Bcl-2-CFP and Bax-YFP plasmids were transfected separately or simultaneously into Hela cells by using calcium phosphate coprecipitation method, 24 hours later, the cells were inoculated in a 6-well plate (2×10^5 cells/well), and the compound 1 to be detected dissolved in DMSO was added there into until the final concentration (2, 5, 10 and 15 μM) was achieved. 24 hours later (please refer to FIG. 5); the cells were washed with PBS for three times. The fluorescence value was detected by GENIOS fluorescence enzyme-labelled meter (TECAN, Swiss). In time-dependent experiment, the transfected cells were inoculated in a 6-well plate, after that, 40 μM of the compound was added thereinto. 3, 6 and 24 hours later (FIG. 6), the fluorescence intensities were detected by plate reader. As for the cell group in which only Bcl-2-CFP plasmid was transfected, the values at 475 nm emission wave length and 433 nm excitation wave length were recorded. As for the cell group in which only Bax-YFP plasmid was transfected, the values at 527 nm emission wave length and 505 nm excitation wave length were recorded. As for the cell group in which Bcl-2-CFP and Bax-YFP plasmids were co-transfected, the values at 527 nm and 475 emission wave lengths and 433 nm excitation wave length were recorded. The ratio of fluorescence intensity at 527 nm and 475 nm emission wave lengths was FRET. The FRET for the control group in which the plasmid was solely transfected was set as 1.0. […] In the cotransfected cells, the FRET increased up to 2.0 due to the interaction of Bcl-2 protein and Bax protein, and that the interference to the interaction between the two proteins increased and FRET decreased with the increase of the drug concentration and time. The cellular vitality was detected by MTT method. When the concentration of the compound reached 1 μM, the interaction between Bcl-2 and Bax can be interfered after 2 hours, and the results appeared concentration-time dependent trend.
Wherein the concentration and time meant that the detected compound interfered with the interaction between Bcl-2 and Bax at the concentration for the time period.

T1 sequence (P10415 whole entry): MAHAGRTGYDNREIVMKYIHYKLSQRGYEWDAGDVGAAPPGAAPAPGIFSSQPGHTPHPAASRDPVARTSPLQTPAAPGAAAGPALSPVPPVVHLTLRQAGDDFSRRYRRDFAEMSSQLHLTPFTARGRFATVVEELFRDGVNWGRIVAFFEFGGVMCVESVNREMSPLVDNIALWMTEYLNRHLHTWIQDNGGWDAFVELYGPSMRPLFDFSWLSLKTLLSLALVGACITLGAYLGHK

Row | Compound | Doses (concentration at which the compound interfered with the interaction between Bcl-2 and Bax)
13 | CCCCNC1=C2C(=NC1=O)c1cccc3c(Sc4ccc(Br)cc4)ccc2c13 [Compound 7, 3-(4-Bromo-phenylsulfanyl)-9-butylamino-acenaphtho[1,2-b]pyrrol-8-one] | 0.3 µM
14 | CCCCNC1=C2C(=NC1=O)c1cccc3cccc2c13 [Compound 1, 9-n-Butylamino-8H-acenaphtho[1,2-b]pyrrol-8-one] | 1 µM and 1.0 µM

Same assay, conditions: at the concentration given

Row | Compound | Time (time period after which the interaction between Bcl-2 and Bax was interfered) [h]
15 | CCCCNC1=C2C(=NC1=O)c1cccc3c(Sc4ccc(Br)cc4)ccc2c13 [Compound 7, 3-(4-Bromo-phenylsulfanyl)-9-butylamino-acenaphtho[1,2-b]pyrrol-8-one] | 3
16 | CCCCNC1=C2C(=NC1=O)c1cccc3cccc2c13 [Compound 1, 9-n-Butylamino-8H-acenaphtho[1,2-b]pyrrol-8-one] | 2

Target: Bcl-2 protein (Homo sapiens, UniProt P10415)
Assay: ELISA assay, competitive binding to Bcl-2 protein (biotin-Bim/streptavidin plate)
Details: method calculates average IC50, read-out: Bcl-2 binding constants
Protocol: as §2, §3, §4

Chain of Bcl-2 protein (P10415 whole entry, species assumed): as the sequence (P10415 whole entry) above

Row | Compound | IC50 [nM]
17 | CCCCNC1=C2C(=NC1=O)c1cccc3c(Sc4ccc(Br)cc4)ccc2c13 [Compound 7, 3-(4-Bromo-phenylsulfanyl)-9-butylamino-acenaphtho[1,2-b]pyrrol-8-one] | 66
18 | CCCCNC1=C2C(=NC1=O)c1cccc3cccc2c13 [Compound 1, 9-n-Butylamino-8H-acenaphtho[1,2-b]pyrrol-8-one] | 142

Test system: MCF-7 cells transfected with BAX/BAK interfering plasmid
Assay: Cytotoxicity by MTT, cells transfected with BAX/BAK interfering plasmid
Format: cell-based
Details: Homo sapiens, MCF7; MCF-7 with BAX/BAK interfering plasmid, MTT, 48 hours
Protocol: (§5) 3 μg of BAX/BAK interfering plasmid was transfected into MCF-7 cells by using calcium phosphate coprecipitation method, 24 hours later, the cells were collected. The expressions after the BAX and BAK proteins interfered with RNA was detected by Western, and the cell groups without plasmid transfection were treated similarly and were set as the control group. The transfected cells were inoculated in a 96-well plate (1×10^5 cells/well), the control experiment of the cell group without plasmid transfection was carried out in parallel. The compound 1 to be detected was added thereinto according to the concentration gradient designed before the experiment. 48 hours later, the cellular vitality was detected by MTT. The experimental results were shown in FIG. 9, Gossypol as nonspecific BH3 analogue was treated in parallel.
(§6) Other 24 compounds were also detected by the same experimental method as described above, the differences of IC50 values between the transfected cells and the without plasmid transfection cells were compared.

Row | Compound | IC50 [nM]
19 | CCCCNC1=C2C(=NC1=O)c1cccc3c(Sc4ccc(Br)cc4)ccc2c13 [Compound 7, 3-(4-Bromo-phenylsulfanyl)-9-butylamino-acenaphtho[1,2-b]pyrrol-8-one] | > 50000
20 | CCCCNC1=C2C(=NC1=O)c1cccc3cccc2c13 [Compound 1, 9-n-Butylamino-8H-acenaphtho[1,2-b]pyrrol-8-one] | > 50000

Same assay, conditions: comparison of transfected and untransfected MCF-7 cells

Row | Compound | dependence of cytotoxicity on BAX/BAK
21 | CCCCNC1=C2C(=NC1=O)c1cccc3cccc2c13 [Compound 1, 9-n-Butylamino-8H-acenaphtho[1,2-b]pyrrol-8-one] | absolute dependence on BAX/BAK

Test system: MCF-7 cells
Assay: Cytotoxicity by MTT, cells without plasmid transfection
Format: cell-based
Details: Homo sapiens, MCF7; MCF-7, MTT, 48 hours; read-out: IC50 value in untransfected cells
Protocol: as §5, §6

Row | Compound | IC50 [nM]
22 | CCCCNC1=C2C(=NC1=O)c1cccc3c(Sc4ccc(Br)cc4)ccc2c13 [Compound 7, 3-(4-Bromo-phenylsulfanyl)-9-butylamino-acenaphtho[1,2-b]pyrrol-8-one] | 1200
23 | CCCCNC1=C2C(=NC1=O)c1cccc3cccc2c13 [Compound 1, 9-n-Butylamino-8H-acenaphtho[1,2-b]pyrrol-8-one] | 4000

Test system: Bcl-2
Assay: Western blotting, semiquantitative analysis of Bcl-2 protein bands
Format: cell-based
Details: 6 h; control = 1; tumor cells
Protocol: as §1

Row | Compound | concentration of the protein bands (semiquantitative, normalized), Bcl-2
24 | CCCCNC1=C2C(=NC1=O)c1cccc3c(Sc4ccc(Br)cc4)ccc2c13 [Compound 7, 3-(4-Bromo-phenylsulfanyl)-9-butylamino-acenaphtho[1,2-b]pyrrol-8-one] | 0.99
25 | CCCCNC1=C2C(=NC1=O)c1cccc3cccc2c13 [Compound 1, 9-n-Butylamino-8H-acenaphtho[1,2-b]pyrrol-8-one] | 0.99

Same assay, conditions: 12 h; control = 1; tumor cells

Row | Compound | concentration of the protein bands (semiquantitative, normalized), Bcl-2
26 | CCCCNC1=C2C(=NC1=O)c1cccc3c(Sc4ccc(Br)cc4)ccc2c13 [Compound 7, 3-(4-Bromo-phenylsulfanyl)-9-butylamino-acenaphtho[1,2-b]pyrrol-8-one] | 0.99
27 | CCCCNC1=C2C(=NC1=O)c1cccc3cccc2c13 [Compound 1, 9-n-Butylamino-8H-acenaphtho[1,2-b]pyrrol-8-one] | 0.99

Same assay, conditions: 18 h; control = 1; tumor cells

Row | Compound | concentration of the protein bands (semiquantitative, normalized), Bcl-2
28 | CCCCNC1=C2C(=NC1=O)c1cccc3c(Sc4ccc(Br)cc4)ccc2c13 [Compound 7, 3-(4-Bromo-phenylsulfanyl)-9-butylamino-acenaphtho[1,2-b]pyrrol-8-one] | 0.51
29 | CCCCNC1=C2C(=NC1=O)c1cccc3cccc2c13 [Compound 1, 9-n-Butylamino-8H-acenaphtho[1,2-b]pyrrol-8-one] | 0.58

Same assay, conditions: 24 h; control = 1; tumor cells

Row | Compound | concentration of the protein bands (semiquantitative, normalized), Bcl-2
30 | CCCCNC1=C2C(=NC1=O)c1cccc3c(Sc4ccc(Br)cc4)ccc2c13 [Compound 7, 3-(4-Bromo-phenylsulfanyl)-9-butylamino-acenaphtho[1,2-b]pyrrol-8-one] | 0.20
31 | CCCCNC1=C2C(=NC1=O)c1cccc3cccc2c13 [Compound 1, 9-n-Butylamino-8H-acenaphtho[1,2-b]pyrrol-8-one] | 0.21

Same assay, conditions: Western blotting, tumor cells

Row | Compound | inhibition against Bcl-2 (in words)
32 | CCCCNC1=C2C(=NC1=O)c1cccc3cccc2c13 [Compound 1, 9-n-Butylamino-8H-acenaphtho[1,2-b]pyrrol-8-one] | had the inhibition against these two proteins
